Data as given in patent publication US20090253589A1, “Method for Testing Active Compounds” (Nambition GmbH, priority 2006, published 2009).
“Also recorded” adds a separate entry of the source. Read-outs that look alike come from different tables or passages of the source.

Tests used:
rhodopsin [1] = target: T1, rhodopsin (Bos taurus, UniProt P02699); experiment: Single-molecule force spectroscopy (AFM) unfolding of rhodopsin in native ROS disc membranes: unfolding forces and pathways; design: ROS were purified from fresh bovine retinas as described [33]; from tissue; host or cells: bovine retina, rod outer segment (ROS) disc membranes; species or system bovine
Target sequence in this assay (P02699 whole entry): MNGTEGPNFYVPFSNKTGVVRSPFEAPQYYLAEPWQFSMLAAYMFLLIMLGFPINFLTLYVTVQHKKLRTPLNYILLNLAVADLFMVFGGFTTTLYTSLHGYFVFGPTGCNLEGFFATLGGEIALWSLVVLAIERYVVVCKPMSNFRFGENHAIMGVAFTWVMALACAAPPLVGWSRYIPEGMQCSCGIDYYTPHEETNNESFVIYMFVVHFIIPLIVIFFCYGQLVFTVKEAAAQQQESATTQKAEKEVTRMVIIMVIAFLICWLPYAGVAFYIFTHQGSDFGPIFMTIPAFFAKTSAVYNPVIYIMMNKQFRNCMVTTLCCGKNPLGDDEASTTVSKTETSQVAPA

[2] = target: T2, rhodopsin Cys110-Cys187 disulfide bond (Bos taurus, UniProt P02699); experiment: SMFS of rhodopsin: ratio of 65 nm (intact Cys110-Cys187 bond) to 95 nm (absent bond) force-distance curves; design: species or system bovine; details: for effect on ratio of intact to broken Cys110-Cys187 disulfide bonds (65 nm vs 95 nm rhodopsin): increasing Zn^2+ concentrations, FIG. 4
T2 construct: ROS were purified from fresh bovine retinas as described [33]; from tissue; host or cells: bovine retina, rod outer segment (ROS) disc membranes
Excerpt: This is due to the fact that the loop not unraveled by SMFS in the Cys110-Cys187 form is unfolded in the 95 nm form.
These force spectra were obtained in substantial absence of zinc, since EDTA was used in the preparation of the ROS disc membranes.
The ratio of the Cys110-Cys187 rhodopsin force-distance curves and the 95 nm rhodopsin force-distance curves was changed in the presence of dithiothreitol and N-ethylmaleimide. The ratio of the 65 nm curves to the 95 nm curves was 1:2 in the presence of dithiothreitol and 7:1 in the presence of N-ethylmaleimide. Dithiothreitol likely disrupts the Cys110-Cys187 disulfide bond, and N-ethylmaleimide alkylates Cys 185. The action of these two compounds likely occurs during the unfolding of rhodopsin, since the residues modified by these reagents are not accessible in the native structure of the protein, as can be judged from the known crystal structure of rhodopsin.
AFM imaging and force spectroscopy were performed as described elsewhere. Disc membranes were adsorbed onto a freshly cleaved mica surface as described previously. For force measurements, the AFM stylus was approached to the Rh surface while applying a constant force of ˜1 nN. After a contact time of ˜0.5-1 s, the stylus was retracted from the membrane surface at a constant velocity of 300 nm/s. All experiments were performed in 150 mM KCl, 25 mM MgCl2, 20 mM Tris, pH 7.8, at room temperature. In experiments where rhodopsin was treated with 1 mM EDTA (Sigma), ZnCl2 (Fisher Scientific), CaCl2, CdCl2, CoCl2, or CuCl2, the buffer was supplemented with the specified amounts of the reagent and the pH adjusted to 7.8. When assayed with 0, 10, 25, 50, 100, 200 and 400 μM ZnCl2, rhodopsin in native ROS disc membranes was diluted in the dilution buffer with the required amount of ZnCl2 and incubated on ice for ˜40 mins—1 h in complete darkness. In the case of other metal ions the sample preparation was carried out in a similar way. In the experiment where 1 mM EDTA was used, 25 mM MgCl2 was not added to the buffer. All dilutions were carried out under dim red light and experiments performed in a completely dark room. Force curves were collected over a period of less than 1 h to prevent bleaching of rhodopsin. The red laser on the AFM promoted minimal bleaching of Rh. ROS membranes solubilized in n-dodecyl-β-D-maltoside were bleached less than 5% after incubation under the AFM laser for 1 hr.
In the first step, the force-distance curves were separated based on their lengths. […] The number of extended amino acid residues at each peak was then calculated using the contour length obtained from the WLC fits. […] To measure the unfolding force and probability of unfolding for each individual structural segment, every event of each curve was analyzed.

rhodopsin [3] = target: T1, rhodopsin; experiment: SMFS cleavage experiment: ROS membranes digested with endoproteinase Glu-C, fraction of curves by length; design: total number of curves obtained from the uncleaved native Rh sample; from tissue; host or cells: bovine retina ROS membranes, treated with endoproteinase Glu-C (Roche Applied Science); species or system bovine
Experimental: For cleavage experiments, ROS membranes (2 mg/mL) resuspended in Ringer's buffer (10 mM Hepes, 130 mM NaCl, 3.6 mM KCl, 2.4 mM MgCl2, 1.2 mM CaCl2, 0.02 mM EDTA, pH 7.4) were treated with endoproteinase Glu-C (Roche Applied Science, Indianapolis, Ind., USA) at a substrate to enzyme ratio of 10:1 (w/w). Membranes were digested with the enzyme for 2 h at room temperature and 1.5 h on ice. The reaction was terminated by washing membranes three times with Ringer's buffer containing 5 mM benzamidine (1 mL) and one time with buffer A (1 mL). Membranes were resuspended in buffer A for SMFS studies. For solubilization of rhodopsin (Rh), ROS membranes were resuspended in 20 mM BTP, 150 mM NaCl, 1% n-dodecyl-β-D-maltoside, pH 7.4. The membrane suspension was shaken at room temperature for 10 min and then centrifuged to remove insoluble material at 164,000×g for 30 min. Protein concentration was determined using the Bradford Protein Assay Kit from Bio-Rad Laboratories (Hercules, Calif., USA).
As mentioned above the molecule could detach from the AFM stylus during unfolding. Therefore, for the cleavage experiments with endoproteinase Glu-C it is important to be certain that the <40 nm length force-distance curves are mainly from the N-terminal fragment of the molecule and not from the detached molecule. […]
Target sequence in this assay (P02699 whole entry): as above
Target sequence in this assay (P02699 240-341 limits assumed): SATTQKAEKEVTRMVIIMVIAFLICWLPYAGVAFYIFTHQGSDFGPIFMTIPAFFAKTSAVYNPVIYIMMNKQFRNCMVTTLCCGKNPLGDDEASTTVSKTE

[4] = 200 μM metal ion in buffer, FIG. 3A
[5] = dark state rhodopsin, native ROS disc membranes
[6] = in the presence of N-ethylmaleimide

T2 sequence (P02699 whole entry): as the sequence (P02699 whole entry) above

Compound: [Cl][Cd][Cl] [cadmium, CdCl2]
- effect on stability of rhodopsin segments (difference in unfolding force relative to 0 μM Zn^2+) (rhodopsin [1]; [4]): destabilize the majority of the segments
- effect on stability of rhodopsin segments (difference in unfolding force relative to 0 μM Zn^2+) (rhodopsin [1]; 200 μM metal ion in buffer, FIG. 3A, listed as Cd^2+): destabilize or have no effect on the majority of the segments

Compound: [Cl-].[Cl-].[Co+2] [cobalt, CoCl2]
- effect on stability of rhodopsin segments (difference in unfolding force relative to 0 μM Zn^2+) (rhodopsin [1]): destabilize the majority of the segments; also recorded: destabilize or have no effect on the majority of the segments

Compound: [Cl-].[Cl-].[Zn+2] [zinc, ZnCl2]
- effect on ratio of intact to broken Cys110-Cys187 disulfide bonds (65 nm vs 95 nm rhodopsin) [2]: favour the level of 65 nm rhodopsin
- effect on ratio of intact to broken Cys110-Cys187 disulfide bonds (65 nm vs 95 nm rhodopsin) ([2]; listed as Zn^2+): clearly stabilizes the disulfide bond in a concentration dependent manner
- effect on stability of rhodopsin segments (difference in unfolding force relative to 0 μM Zn^2+) (rhodopsin [1]; [4]): stabilizes most segments of the receptor
- zinc concentration above which the stability of rhodopsin increased (rhodopsin [1]; [5]): above 50 μM
- zinc concentration giving the highest stability of dark state rhodopsin (rhodopsin [1]; [5]): 200 µM
- effect on occurrence probabilities of the unfolding pathways (rhodopsin [1]; zinc 10, 25, 50, 100, 200 and 400 μM, other metal ions 200 μM): leads to a change in the occurrence probabilities of the unfolding pathways

Compound: [Ca+2].[Cl-].[Cl-] [calcium, CaCl2]
- effect on stability of rhodopsin segments (difference in unfolding force relative to 0 μM Zn^2+) (rhodopsin [1]; [4]): destabilize the majority of the segments
- effect on stability of rhodopsin segments (difference in unfolding force relative to 0 μM Zn^2+) (rhodopsin [1]; 200 μM metal ion in buffer, FIG. 3A, listed as Ca^2+): destabilize or have no effect on the majority of the segments

Compound: endoproteinase Glu-C: protease (Roche Applied Science) used to digest ROS membranes in cleavage experiments
- fraction of short curves (<40 nm) of the total curves (rhodopsin [3]; digested sample (untreated sample 23%)): 55%
- fraction of ≈65 nm and ≈95 nm long curves (rhodopsin [3]; enzymatically treated sample): 2%

Compound: CCN1C(=O)C=CC1=O [N-ethylmaleimide]
- fold increase in the proportion of the 65 nm curves [2, 6]: 3.5 fold
- fraction of total rhodopsin molecules that lack the Cys110-Cys187 bond [2, 6]: ⅛

Compound: [Cl-].[Cl-].[Mg+2] [magnesium, MgCl2]
- effect on the stability of rhodopsin (rhodopsin [1]; 25 mM Mg^2+, FIG. 3B): almost no effect
